Holding throughout (assay type): biochemical
The target of experiment [1] is full-length SHP2 wild-type (SHP2-WT) (Homo sapiens (Human), UniProt Q06124). The experiment in a line: DiFMUP fluorescence intensity phosphatase inhibition assay, SHP2-WT activated with IRS-1 peptide. As to conditions: DiFMUP at Km (60 μM), IRS-1 peptide activated. The text has this: (§1) To test the synthesized compounds for their potential to inhibit SHP2 activity, a fluorescence intensity-based assay using 6,8-difluoro-4-methylumbelliferyl phosphate (DiFMUP) as the substrate was adapted for three recombinant SHP2 constructs: 1) the SHP2 catalytic domain (SHP2cat; residues 248-527), 2) the full-length SHP2-E76K oncogenic mutant, and 3) the full-length SHP2 wild-type (SHP2-WT). The recombinant SHP2 proteins were expressed and purified. A dually phosphorylated peptide derived from the insulin receptor substrate 1 (IRS-1) served as a surrogate binding protein and was used to activate SHP2-WT. […] Michaelis-Menten experiments to determine the DiFMUP Michaelis-Menten constant (Kmn) for each SHP2 construct were performed and yielded the following values: SHP2-WT, Km=60 μM; SHP2-E76K, Km=20 μM; SHP2cat, Km=20 μM. Relative maximum rates (Vmax) of the DiFMUP reactions were as follows: SHP2-WT, Vmax=871 AFU/min; SHP2-E76K, Vmax, =2730 AFU/min; SHP2cat, Vmax=2912 AFU/min. IC50 values for each compound were determined from initial rates in 10-point dose-response assays using DiFMUP at a concentration corresponding to its Km value for the respective SHP2 construct.
full-length SHP2 wild-type (SHP2-WT), sequence (Q06124 whole entry, other chains not shown, the tested form may be a part): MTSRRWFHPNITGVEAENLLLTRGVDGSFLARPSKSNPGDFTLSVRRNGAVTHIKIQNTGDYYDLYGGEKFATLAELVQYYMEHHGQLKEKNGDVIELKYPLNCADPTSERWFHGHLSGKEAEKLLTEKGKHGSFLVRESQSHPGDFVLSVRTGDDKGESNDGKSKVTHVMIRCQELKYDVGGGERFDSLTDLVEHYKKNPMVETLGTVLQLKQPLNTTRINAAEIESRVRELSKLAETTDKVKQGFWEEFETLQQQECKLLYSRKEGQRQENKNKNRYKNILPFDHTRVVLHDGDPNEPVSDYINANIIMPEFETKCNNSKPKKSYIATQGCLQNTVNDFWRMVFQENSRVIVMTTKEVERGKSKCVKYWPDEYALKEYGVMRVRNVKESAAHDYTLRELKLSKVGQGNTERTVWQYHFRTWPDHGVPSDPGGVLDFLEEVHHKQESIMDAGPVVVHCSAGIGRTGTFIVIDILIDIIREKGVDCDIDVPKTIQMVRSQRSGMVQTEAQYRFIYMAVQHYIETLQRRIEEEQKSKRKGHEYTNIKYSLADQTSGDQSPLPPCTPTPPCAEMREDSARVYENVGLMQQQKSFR
(§2) SHP2 inhibitors were tested at room temperature (RT) in a 384-well plate format standard phosphatase fluorescence intensity assay using DiFMUP (Invitrogen/Thermo Fisher Scientific, Carlsbad, CA) as a substrate and a total reaction volume of 25 μL. SHP2 inhibitors or vehicle (DMSO) were spotted in triplicate into a black Greiner FLUOTRAC™ 200 384-well microplate (#781076, Greiner) for a 10-point dose-response assay using an Echo®555 Liquid Handler (Labcyte, Inc., San Jose, CA). PTP working solutions were prepared at a 0.625 nM concentration (for a final concentration of 0.5 nM) in buffer containing 50 mM Bis-Tris pH 6.0, 50 mM NaCl, 5 mM DTT, and 0.01% Tween® 20. Prior to the assay, a dually phosphorylated insulin receptor substrate 1 (IRS-1) peptide [625 nM (500 nMfinal) (30)] was added to full-length WT SHP2 working solutions and incubated for 20 min. DiFMUP working solutions at 5× final concentration were prepared in 50 mM Bis-Tris pH 6.0, 50 mMNaCl, and 0.01% Tween 20. 20 μL of PTP working solution was dispensed into the microplate and incubated with inhibitor for 20 min at RT. […] The reaction was initiated by addition of 5 μL DiFMUP working solutions. Fluorescence intensity was measured in kinetic mode (every minute for 7 or 10 min) using a Tecan Spark® Multimode Microplate Reader (Tecan, Groedig, Austria) with an excitation wavelength of 360 nm and an emission wavelength of 460 nm. The initial rates were determined from the linear progression curves of the PTP reaction. The nonenzymatic hydrolysis of the substrate was corrected by using a control without addition of enzyme. IC50 values were calculated from the corrected initial rates by nonlinear regression using the program GraphPad Prism (GraphPad Software, Inc., San Diego, CA) Version 8. Dose-response inhibition assays of SHP2cat using the substrate OMFP were performed similarly as described above for DiFMUP. OMFP was used at a concentration corresponding to its Km value for SHP2cat (50 μM final). Fluorescence intensity was measured in kinetic mode (every minute for 10 min) using a Tecan Spark Multimode Microplate Reader with an excitation wavelength of 485 nm and an emission wavelength of 535 nm. Initial rates were determined and IC50 vales calculated as described above.

In experiment [2] the target is striatal-enriched tyrosine phosphatase (STEP) catalytic domain (Homo sapiens (Human), UniProt P54829). The experiment in a line: DiFMUP phosphatase inhibition assay, STEP. The note with it: for IC50: catalytic domain, DiFMUP at Km (4 μM); for fold selectivity for SHP2 over STEP: from IC50 values against catalytic domains. The protocol:
(§3) Selectivity is one of the biggest challenges in PTP inhibitor development. […] Similar to SHP2, we adapted a 384-well plate format DiFMUP assay for recombinant PTP1B and STEP and performed Michaelis-Menten experiments to determine DiFMUP Km values for each phosphatase. IC50 values of our inhibitors for PTP1B and STEP were determined in 10-point dose-response assays with DiFMUP used at the concentration corresponding to the respective Km value. […] Other inhibitors with good relative selectivity for SHP2 included #02 (13-fold selective over PTP1B; 73-fold selective over STEP) and #05 (5-fold selective over PTP1B; >71-fold selective over STEP).
as §2

Experiment [3] concerns the target full-length SHP2-E76K oncogenic mutant (Homo sapiens (Human), UniProt Q06124, E76K). Description: DiFMUP fluorescence intensity phosphatase inhibition assay, SHP2-E76K.
From the text: as §1, §2

Experiment [4] has as its target PTP1B catalytic domain (Homo sapiens (Human), UniProt P18031). Description: DiFMUP phosphatase inhibition assay, PTP1B. The note with it: for IC50: catalytic domain, DiFMUP at Km (25 μM); for fold selectivity for SHP2 over PTP1B: from IC50 values against catalytic domains. The protocol: as §3, §2
Experiment [5] addresses SHP2 catalytic domain (SHP2cat; residues 248-527) (Homo sapiens (Human), UniProt Q06124). The experiment in a line: DiFMUP fluorescence intensity phosphatase inhibition assay, SHP2cat.
From the text: as §1, §2

[6] abbreviates: DiFMUP at Km (20 μM), 10-point dose-response, read-out: SHP2-E76K IC50.
The mark [7] stands for this setting: DiFMUP at Km (20 μM), read-out: SHP2cat IC50.
Setting [8] is: catalytic domain, DiFMUP at Km, read-out: SHP2 IC50.

Molecules are shown by their SMILES. Where two headings read alike, the source gives them in different places.

The record followed here is US20250026741A1, “INHIBITORS OF THE ONCOGENIC SHP2 PHOSPHATASE AND USES THEREOF” (Sanford Burnham Prebys Medical Discovery Institute, priority 2021, published 2025).

full-length SHP2-E76K oncogenic mutant, sequence (Q06124 whole entry E76K): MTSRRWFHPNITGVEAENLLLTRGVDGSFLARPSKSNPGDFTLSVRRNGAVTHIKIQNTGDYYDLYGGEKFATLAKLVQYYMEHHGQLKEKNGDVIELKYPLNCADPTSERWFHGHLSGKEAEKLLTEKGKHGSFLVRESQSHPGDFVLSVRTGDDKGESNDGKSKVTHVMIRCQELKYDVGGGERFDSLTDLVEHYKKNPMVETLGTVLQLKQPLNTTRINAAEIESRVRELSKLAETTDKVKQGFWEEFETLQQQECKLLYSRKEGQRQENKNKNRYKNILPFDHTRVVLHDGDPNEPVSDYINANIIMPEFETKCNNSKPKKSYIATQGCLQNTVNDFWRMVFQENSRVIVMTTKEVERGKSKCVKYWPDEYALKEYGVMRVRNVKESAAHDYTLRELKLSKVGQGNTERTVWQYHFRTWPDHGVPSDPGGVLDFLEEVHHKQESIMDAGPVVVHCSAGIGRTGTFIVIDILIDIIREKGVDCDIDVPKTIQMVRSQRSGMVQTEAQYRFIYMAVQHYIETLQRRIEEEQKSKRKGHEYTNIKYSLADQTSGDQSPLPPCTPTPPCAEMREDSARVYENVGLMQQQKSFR
striatal-enriched tyrosine phosphatase (STEP) catalytic domain, sequence (P54829 280-565 limits assumed): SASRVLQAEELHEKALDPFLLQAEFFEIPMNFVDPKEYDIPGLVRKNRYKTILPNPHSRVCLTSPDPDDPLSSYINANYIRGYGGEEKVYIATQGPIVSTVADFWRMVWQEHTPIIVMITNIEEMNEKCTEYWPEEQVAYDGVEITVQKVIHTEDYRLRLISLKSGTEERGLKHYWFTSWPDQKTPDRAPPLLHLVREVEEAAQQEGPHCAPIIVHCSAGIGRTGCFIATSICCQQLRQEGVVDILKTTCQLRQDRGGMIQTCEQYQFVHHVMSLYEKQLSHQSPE
PTP1B catalytic domain, sequence (P18031 1-300): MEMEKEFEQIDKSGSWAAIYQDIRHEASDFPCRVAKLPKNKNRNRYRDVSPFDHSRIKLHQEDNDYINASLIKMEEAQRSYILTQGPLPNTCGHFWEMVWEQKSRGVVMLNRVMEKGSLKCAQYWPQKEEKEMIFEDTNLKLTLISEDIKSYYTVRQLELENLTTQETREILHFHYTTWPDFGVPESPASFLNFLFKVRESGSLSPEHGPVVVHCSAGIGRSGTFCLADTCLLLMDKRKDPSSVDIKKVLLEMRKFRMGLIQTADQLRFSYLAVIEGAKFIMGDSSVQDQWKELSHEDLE
SHP2 catalytic domain (SHP2cat; residues 248-527), sequence (Q06124 248-527): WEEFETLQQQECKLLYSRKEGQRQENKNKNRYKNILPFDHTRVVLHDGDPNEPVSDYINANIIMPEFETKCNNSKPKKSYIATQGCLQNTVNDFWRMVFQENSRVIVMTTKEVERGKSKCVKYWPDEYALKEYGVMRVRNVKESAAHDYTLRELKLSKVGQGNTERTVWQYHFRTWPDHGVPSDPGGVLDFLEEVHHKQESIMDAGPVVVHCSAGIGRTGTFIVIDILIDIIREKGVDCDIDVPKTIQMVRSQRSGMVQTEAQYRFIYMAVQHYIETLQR

On to `Nc1ccc(NC(=O)c2cc(-c3ccc(/C=C4\Sc5ccccc5C4=O)o3)ccc2O)cc1` [#01, (Z)—N-(4-Aminophenyl)-2-hydroxy-5-(5-((3-oxobenzo[b]thiophen-2(3H)-ylidene)methyl)furan-2-yl)benzamide], for which the IC50 is 1 to 20 µM in experiment [1]; 44 µM in experiment [2]; at most 1 µM in experiment [3] (setting [6]); 6.8 µM in experiment [4]; at most 1 µM in experiment [5] (setting [7]); 0.22 µM in experiment [5] (setting [8]). Moreover, the “fold selectivity for SHP2 over STEP” value in experiment [2] came out at 200 fold. Moreover, in experiment [4], the “fold selectivity for SHP2 over PTP1B” value stood at 31 fold.

On to `O=C(Nc1ccccc1)c1cc(-c2ccc(/C=C3\Sc4ccccc4C3=O)o2)ccc1O` [#02, (Z)-2-hydroxy-5-(5-((3-oxobenzo[b]thiophen-2(3H)-ylidene)methyl)furan-2-yl)-N-phenylbenzamide], for which the IC50 is 1 to 20 µM in experiment [1]; 53 µM in experiment [2]; 1 to 20 µM in experiment [3] (setting [6]); 1.8 µM in experiment [3] (IC50 against SHP2-E76K, in vitro phosphatase inhibition assay, screening hit, heading: IC50 against SHP2-E76K); 9.4 µM in experiment [4]; at most 1 µM in experiment [5] (setting [7]). For the same compound, in experiment [5] (setting [8]), the IC50 worked out at 0.73 µM. In experiment [2], the “fold selectivity for SHP2 over STEP” value is 73 fold. The “fold selectivity for SHP2 over PTP1B” value in experiment [4] stood at 13 fold.

As for `N#Cc1cc(-c2ccc(/C=C3\Sc4ccccc4C3=O)o2)ccc1O` [#05, (Z)-2-Hydroxy-5-(5-((3-oxobenzo[b]thiophen-2(3H)-ylidene)methyl)furan-2-yl)benzonitrile], the IC50 in experiment [1] is 1 to 20 µM; in experiment [2], over 100 µM; in experiment [3] (setting [6]), 1 to 20 µM; in experiment [4], 7.4 µM; in experiment [5] (setting [7]), 1 to 20 µM; in experiment [5] (setting [8]), 1.4 µM. In addition, in experiment [4], the “fold selectivity for SHP2 over PTP1B” value is given as 5 fold.

One may read the IC50 as the point on the concentration scale where inhibition reaches its midpoint.
